Measured values published in patent publication US9777021B2, “Lubricant additives” (Qatar Foundation, priority 2016, dated 2017).

Columns and labels:
[1] = Temperature-ramped pin-on-disk (ball-on-disk) tribometry, friction (COF); conditions: for friction reduction: temperature ramp 180 to 350° C. over 30 min
Experimental: (§1) Silver complex 1 was combined with PAO4 and 15W40 military-grade engine oil (FF oil). The complex was dissolved in the minimal amount of hexane (1 mL per 1 g silver complex) and then added to the oil to achieve complex concentrations of 1.0, 2.5 and 5.0 wt %. Before testing, the oil-silver complex mixtures were stirred with a magnetic stir bar for 30 minutes to ensure a homogeneous dispersion.
Table 1 outlines the experimental conditions used in this study. A ball bearing made of M50 bearing steel with 62 HRC hardness and a diameter of 4 mm is used to apply a vertical load to a 52100 steel disk with 50 HRC hardness and a diameter to 3″ as the disk rotates. The surface of the disk is coated with a 2 mL solution of 1 in the desired base oil. The sliding test conditions for all the experiments were: Normal load=25 N, sliding velocity=200 rpm. In the temperature ramp experiments, the temperature is increased from 180-350° C. over 30 min in order to detect any change in frictional characteristics as the oil degrades, and partially evaporates, and once the metallic Ag is deposited.
Silver complex 1 was added to oil at 0.0, 1.0, 2.5, and 5 wt % loadings. A minimal amount of hexanes was added to aid in solubilizing the complex (1 mL hexanes/g of complex) before mixing with oil. The oils used are PAO4, a base oil with no additives, and a military-grade 15W40 oil, which is fully formulated (FF) but contains no silver-containing additives (confirmed by elemental analysis).

Solubility in base oil = assay type: physicochemical
Experimental: as §1
Solubility in base oil is an important property for tribologically promising high temperature additives, and is something that challenged previous generations of silver-organic additives.
Silver complex 1 was added to oil at 0.0, 1.0, 2.5, and 5 wt % loadings. A minimal amount of hexanes was added to aid in solubilizing the complex (1 mL hexanes/g of complex) before mixing with oil.

[2] = Wear analysis by white light interferometry of wear scars; conditions: disks of temperature ramp tests
Experimental: After friction tests were completed, the disks were sonicated in a hexane bath to remove oil residue. The volume of the wear scar was measured using a Zygo NewView 7100 white light interferometer. The wear volume and material buildup around the wear scar were used to calculate the wear rate, which is defined as the volume removed per unit load per sliding distance. Each additive concentration in oil was tested twice for friction and wear performance. Energy-dispersive X-ray spectroscopy (EDS) on Hitachi S4800-II and Hitachi SU8030 Scanning Electron Microscopes (SEMs) was used to examine the morphology of the disk surface and deposited silver content.
The disks used in the temperature ramp tests (FIG. 8) were next analyzed by white light interferometry to determine the volume of the wear scars and the material buildup outside of the scar. The volume of material removed was normalized for load and the distance traveled during the test. […] The trend in wear rate is similar to the trend in COF (FIG. 7), with a 2.5 wt % loading producing the lowest amounts of wear. […] It is hypothesized that the increase in efficiency of additive 1 is attributable to the increased number of silver atoms/molecule and improved solubility in oil, which enables better dispersion of the additive in base oil.

In the case of CCCCCCc1c(C)n[n-]c1C.[Ag+] [Compound 1, Ag(3,5-dimethyl-4-n-hexyl-pyrazole)], the friction reduction ([1]; 2.5 wt % loading in 15W40) was 30%, the friction reduction ([1]; 2.5 wt % loading in PAO4) was 20% and the “COF behaviour as the oil begins to degrade above ~275° C.” value ([1]; 2.5 wt % loading in either base oil (PAO4, 15W40), temperature ramp 180 to 350° C.) was “the COF does not increase”. For the same compound, the “solubility in PAO4” value (Solubility in base oil; 5 wt % loading, gentle heating at 40° C.) was “homogeneous solution”, the “solubility in oil (PAO4 or 15W40)” value (Solubility in base oil; cloudy suspension at room temperature, heating to 40° C. and magnetic stirring, 1 mL hexanes/g of complex) was “dissolves fully” and the wear reduction ([2]; 2.5 wt % loading in 15W40) was 70%. It also gave a wear reduction ([2]; 2.5 wt % loading in PAO4) of 60%.
